We go through two molecules from US20090047246A1, “NOVEL INHIBITORS OF HEPATITIS C VIRUS REPLICATION” (InterMune, Inc., priority 2007, published 2009).

The target of series [1] is NS3 Helicase (Hepatitis C virus genotype 1b, UniProt P26663). The series can be described thus: Activity of NS3 Helicase in Presence of Detergent with or without LDAO (Table A). Type of series: biochemical. The settings on record: plus LDAO 0.6 mM; for Activity: control = 100. As for the experimental part: In another embodiment, at least one detergent is added to a solution containing NS3 to improve the helicase activity. In some embodiments, the detergent is selected from the group consisting of LDAO, Tween 20, Triton X100, Pluronic F127, CHAPS, β-octyl glucoside, laurylmaltoside, N-lauroylsarcosine, and hexadecyltrimethylammonium bromide. In a preferred embodiment, LDAO is added. In a more preferred embodiment, at least one additional detergent in added to the solution containing NS3 and LDAO. In some embodiments, the additional detergent(s) is/are selected from the group consisting of Tween 20, Triton X100, Pluronic F127, CHAPS, β-octyl glucoside, laurylmaltoside, N-lauroylsarcosine, and hexadecyltrimethylammonium bromide. Table A represents the helicase activity of NS3 in the presence of LDAO and at least one additional detergent; and, in the absence of LDAO and the presence of at least one other detergent.

For series [2], the system named is HCV NS3/4a protease. The series can be described thus: HCV NS3/4a protease activity, effect of additives on reaction rate (Assay Example 1). The settings on record: 0.5 μM FRET substrate; base buffer 50 mM Tris-HCl pH 7.5, 15% glycerol; additive at the concentrations tested. Type of series: biochemical, HCV genotype 1b-K2040. As for the experimental part:
In order to identify reaction conditions that give high levels of HCV NS3/4a protease activity, several additives were analyzed to determine their effect on reaction rate. The base buffer used was 50 mM Tris-HCl, pH 7.5 containing 15% glycerol. The FRET-based assay substrate used (sequence: Ac-DE-Dap(QXL520)-EE-Abu-ψ-[COO]-AS-Cys(5-FAMsp)-NH2) was obtained from Anaspec, Inc. (San Jose, Calif.). The NS4a surrogate peptide used (KGSVVIVGRIILSGRK) was obtained from Midwest Biotech (Fishers, Ind.). The NS3 enzyme used was the benchmark wild-type full length enzyme derived from HCV genotype 1b-K2040. The reaction rate for the NS3 catalyzed hydrolysis of 0.5 μM substrate in base buffer was used as a reference.

The test system of series [3] is T1, NS4a surrogate peptide.
T1 sequence: KGSVVIVGRIILSGRK

Chain of NS3 Helicase (P26663 1027-1657): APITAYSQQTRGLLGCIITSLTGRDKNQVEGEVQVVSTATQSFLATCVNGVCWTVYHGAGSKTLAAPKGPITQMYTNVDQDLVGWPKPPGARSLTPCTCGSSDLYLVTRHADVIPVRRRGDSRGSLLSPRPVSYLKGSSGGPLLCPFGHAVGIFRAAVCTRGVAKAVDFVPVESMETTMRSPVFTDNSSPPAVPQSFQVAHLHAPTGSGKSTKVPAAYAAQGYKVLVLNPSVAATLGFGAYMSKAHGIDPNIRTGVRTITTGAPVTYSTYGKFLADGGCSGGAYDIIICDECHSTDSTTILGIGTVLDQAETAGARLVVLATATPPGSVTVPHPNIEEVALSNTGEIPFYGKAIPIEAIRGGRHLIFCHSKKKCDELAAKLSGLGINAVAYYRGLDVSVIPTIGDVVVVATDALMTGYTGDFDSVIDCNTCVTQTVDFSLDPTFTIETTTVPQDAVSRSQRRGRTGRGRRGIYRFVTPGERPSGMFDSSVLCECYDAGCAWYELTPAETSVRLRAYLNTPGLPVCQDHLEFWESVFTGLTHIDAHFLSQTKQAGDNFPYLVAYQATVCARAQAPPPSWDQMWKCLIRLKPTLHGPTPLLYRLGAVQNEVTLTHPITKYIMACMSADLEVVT

For `C[C@H](CCC(=O)NCCC[N+](C)(C)CCCS(=O)(=O)[O-])[C@H]1CC[C@H]2[C@@H]3[C@H](O)C[C@@H]4C[C@H](O)CC[C@]4(C)[C@H]3C[C@H](O)[C@]12C` [CHAPS], in series [1] (detergent 0.020%), the Slope is reported as −0.77 mP/min and the Activity is recorded as 126%. Also, in series [1] (detergent 0.075%), the Slope is −1.16 mP/min and the Activity was found to be 190%. Besides, in series [2], the “Conclusion (effect of additive on NS3/4a protease reaction rate)” value is given as “CHAPS at 2 mM increased activity”.
Take “NS3 enzyme, benchmark wild-type full length enzyme derived from HCV genotype 1b-K2040”: in series [3], the “NS3/4a protease activity (reaction rate of NS3 catalyzed hydrolysis of 0.5 µM FRET substrate)” value is “Best activity at 25 and 2500 µM”.
